Consider eight molecules from US8088769B2, “Cyanopyrimidinones” (Boehringer Ingelheim International GmbH, priority 2004, dated 2012).

One assay concerns the target T1, PDE1C (Homo sapiens, UniProt Q14123).
T1 construct: made in house; host or cells: Sf9 (baculovirus, pFASTBAC)
Put plainly: PDE inhibition, recombinant PDE1C (SPA). It is filed as biochemical. Conditions: human isoenzyme. The text has this:
(§1) Recombinant PDE1C (GenBank/EMBL Accession Number: NM_005020, Loughney et al. J. Biol. Chem. 1996 271, 796-806), PDE2A (GenBank/EMBL Accession Number: NM_002599, Rosman et al. Gene 1997 191, 89-95), PDE3B (GenBank/EMBL Accession Number: NM_000922, Miki et al. Genomics 1996, 36, 476-485), PDE4B (GenBank/EMBL Accession Number: NM_002600, Obernolte et al. Gene. 1993, 129, 239-247), PDE5A (GenBank/EMBL Accession Number: NM_001083, Loughney et al. Gene 1998, 216, 139-147), PDE7B (GenBank/EMBL Accession Number: NM_018945, Hetman et al. Proc. Natl. Acad. Sci. U.S.A. 2000, 97, 472-476), PDE8A (GenBank/EMBL Accession Number: AF—056490, Fisher et al. Biochem. Biophys. Res. Commun. 1998, 246, 570-577), PDE9A (Fisher et al., J. Biol. Chem., 1998, 273 (25): 15559-15564), PDE10A (GenBank/EMBL Accession Number: NM_06661, Fujishige et al. J Biol Chem. 1999, 274, 18438-45), PDE11A (GenBank/EMBL Accession Number: NM_016953, Fawcett et al. Proc. Natl. Acad. Sci. 2000, 97, 3702-3707) were expressed in Sf9 cells with the aid of the pFASTBAC baculovirus expression system (GibcoBRL).
(§2) The test substances are dissolved in 100% DMSO and serially diluted to determine their in vitro effect on PDE9A. Typically, serial dilutions from 200 μM to 1.6 μM are prepared (resulting final concentrations in the assay: 4 μM to 0.032 μM). 2 μl portions of the diluted substance solutions are introduced into the wells of microtitre plates (Isoplate; Wallac Inc., Atlanta, Ga.). Then 50 μl of a dilution of the PDE9A preparation described above are added. […] The plates are then measured for 30 s per well in a Microbeta scintillation counter (Wallac Inc., Atlanta, Ga.). IC50 values are determined from the graphical plot of the substance concentration versus the percentage inhibition.
(§3) The in vitro effect of test substances on recombinant PDE3B, PDE4B, PDE7B, PDE8A, PDE10A and PDE11A is determined by the assay protocol described above for PDE9A with the following adaptations: the substrate used is [5′,8-^3H]adenosine 3′,5′-cyclic phosphate (1 μCi/μl; Amersham Pharmacia Biotech., Piscataway, N.J.). […]

For another assay, the target named is T2, PDE2A (Homo sapiens, UniProt O00408).
T2 construct: made in house; host or cells: Sf9 (baculovirus, pFASTBAC)
Put plainly: PDE inhibition, recombinant PDE2A (SPA). It is filed as biochemical. Conditions: human isoenzyme.
Source text: as §1, §2, §3

The target of a further assay is T3, PDE3B (Homo sapiens, UniProt Q13370).
T3 construct: made in house; host or cells: Sf9 (baculovirus, pFASTBAC)
Put plainly: PDE inhibition, recombinant PDE3B (SPA). It is filed as biochemical. Conditions: human isoenzyme.
Source text: as §1, §2, §3

For another assay, the target named is PDE4B (Homo sapiens, UniProt Q07343). Put plainly: PDE inhibition, recombinant PDE4B (SPA). It is filed as biochemical. Conditions: human isoenzyme.
Source text: as §1, §2, §3

In another assay the target is T4, PDE7B (Homo sapiens, UniProt Q9NP56).
T4 construct: made in house; host or cells: Sf9 (baculovirus, pFASTBAC)
Put plainly: PDE inhibition, recombinant PDE7B (SPA). It is filed as biochemical. As to conditions: human isoenzyme.
Source text: as §1, §2, §3

Another assay concerns the target T5, PDE10A (Homo sapiens, UniProt Q9Y233).
T5 construct: made in house; host or cells: Sf9 (baculovirus, pFASTBAC)
Put plainly: PDE inhibition, recombinant PDE10A (SPA). It is filed as biochemical. Conditions: human isoenzyme.
Source text: as §1, §2, §3

Another assay addresses T6, PDE11A (Homo sapiens, UniProt Q9HCR9).
T6 construct: made in house; host or cells: Sf9 (baculovirus, pFASTBAC)
Nature of the assay: PDE inhibition, recombinant PDE11A (SPA). It is filed as biochemical. Conditions: human isoenzyme, read-out: IC50 PDE11.
Source text: as §1, §2, §3

The target of the next assay is T7, PDE8A (Homo sapiens, UniProt O60658).
T7 construct: made in house; host or cells: Sf9 (baculovirus, pFASTBAC)
Put plainly: PDE inhibition, recombinant PDE8A (SPA). Conditions: human isoenzyme. It is filed as biochemical.
Source text: Recombinant PDE1C (GenBank/EMBL Accession Number: NM_005020, Loughney et al. J. Biol. Chem. 1996 271, 796-806), PDE2A (GenBank/EMBL Accession Number: NM_002599, Rosman et al. Gene 1997 191, 89-95), PDE3B (GenBank/EMBL Accession Number: NM_000922, Miki et al. Genomics 1996, 36, 476-485), PDE4B (GenBank/EMBL Accession Number: NM_002600, Obernolte et al. Gene. 1993, 129, 239-247), PDE5A (GenBank/EMBL Accession Number: NM_001083, Loughney et al. Gene 1998, 216, 139-147), PDE7B (GenBank/EMBL Accession Number: NM_018945, Hetman et al. Proc. Natl. Acad. Sci. U.S.A. 2000, 97, 472-476), PDE8A (GenBank/EMBL Accession Number: AF—056490, Fisher et al. Biochem. Biophys. Res. Commun. […]
The test substances are dissolved in 100% DMSO and serially diluted to determine their in vitro effect on PDE9A. […] The plates are then measured for 30 s per well in a Microbeta scintillation counter (Wallac Inc., Atlanta, Ga.). IC50 values are determined from the graphical plot of the substance concentration versus the percentage inhibition.
as §3

Assay [1] deals with T8, PDE9A (Homo sapiens, UniProt O76083). Put plainly: PDE inhibition, recombinant PDE9A (SPA). More on the design: made in house; host or cells: Sf9 (baculovirus, pFASTBAC). As to conditions: human isoenzyme. It is filed as biochemical. The method, then:
The dilution of the PDE9A preparation is chosen so that less than 70% of the substrate is converted during the subsequent incubation (typical dilution: 1:10 000; dilution buffer: 50 mM Tris/HCl pH 7.5, 8.3 mM MgCl2, 1.7 mM EDTA, 0.2% BSA). […] The plates are then measured for 30 s per well in a Microbeta scintillation counter (Wallac Inc., Atlanta, Ga.). IC50 values are determined from the graphical plot of the substance concentration versus the percentage inhibition.

For assay [2], the target named is T8, PDE9A. As to conditions: concentrations of up to 100 μM; cited from earlier work.
Another assay deals with T9, Murine PDE9A (Mus musculus, UniProt O70628).
T9 sequence (O70628 1-534): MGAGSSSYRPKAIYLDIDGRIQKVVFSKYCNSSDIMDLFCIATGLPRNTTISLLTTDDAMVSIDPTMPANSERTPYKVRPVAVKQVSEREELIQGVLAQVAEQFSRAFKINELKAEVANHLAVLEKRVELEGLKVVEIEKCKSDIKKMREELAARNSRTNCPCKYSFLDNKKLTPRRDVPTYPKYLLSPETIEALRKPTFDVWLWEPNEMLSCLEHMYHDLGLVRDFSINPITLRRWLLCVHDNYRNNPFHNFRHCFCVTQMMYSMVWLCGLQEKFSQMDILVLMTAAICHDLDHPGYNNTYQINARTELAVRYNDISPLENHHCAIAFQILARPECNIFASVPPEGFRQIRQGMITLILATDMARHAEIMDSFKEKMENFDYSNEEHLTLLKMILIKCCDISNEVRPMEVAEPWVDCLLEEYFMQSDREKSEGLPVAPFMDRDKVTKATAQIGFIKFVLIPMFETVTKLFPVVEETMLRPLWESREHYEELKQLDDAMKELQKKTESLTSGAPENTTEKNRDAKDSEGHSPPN
As to conditions: concentrations below 200 μM; cited from earlier work.

T8 sequence (O76083 whole entry): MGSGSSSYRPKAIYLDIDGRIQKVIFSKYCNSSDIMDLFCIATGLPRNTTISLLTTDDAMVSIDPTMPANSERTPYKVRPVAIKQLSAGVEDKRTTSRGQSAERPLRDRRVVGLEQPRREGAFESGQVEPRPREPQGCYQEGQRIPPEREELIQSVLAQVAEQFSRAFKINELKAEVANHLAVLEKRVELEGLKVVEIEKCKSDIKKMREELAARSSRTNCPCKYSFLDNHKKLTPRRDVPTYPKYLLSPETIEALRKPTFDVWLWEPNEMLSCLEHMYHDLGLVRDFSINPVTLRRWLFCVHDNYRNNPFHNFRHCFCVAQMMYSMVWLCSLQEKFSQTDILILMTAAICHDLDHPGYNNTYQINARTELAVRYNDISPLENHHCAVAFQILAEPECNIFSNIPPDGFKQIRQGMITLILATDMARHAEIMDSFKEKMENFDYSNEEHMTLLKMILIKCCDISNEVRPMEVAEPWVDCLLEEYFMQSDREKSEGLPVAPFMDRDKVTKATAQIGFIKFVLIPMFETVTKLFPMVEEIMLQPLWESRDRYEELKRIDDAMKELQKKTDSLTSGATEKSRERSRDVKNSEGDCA
T5 sequence (Q9Y233 1-779 isoform Q9Y233-1): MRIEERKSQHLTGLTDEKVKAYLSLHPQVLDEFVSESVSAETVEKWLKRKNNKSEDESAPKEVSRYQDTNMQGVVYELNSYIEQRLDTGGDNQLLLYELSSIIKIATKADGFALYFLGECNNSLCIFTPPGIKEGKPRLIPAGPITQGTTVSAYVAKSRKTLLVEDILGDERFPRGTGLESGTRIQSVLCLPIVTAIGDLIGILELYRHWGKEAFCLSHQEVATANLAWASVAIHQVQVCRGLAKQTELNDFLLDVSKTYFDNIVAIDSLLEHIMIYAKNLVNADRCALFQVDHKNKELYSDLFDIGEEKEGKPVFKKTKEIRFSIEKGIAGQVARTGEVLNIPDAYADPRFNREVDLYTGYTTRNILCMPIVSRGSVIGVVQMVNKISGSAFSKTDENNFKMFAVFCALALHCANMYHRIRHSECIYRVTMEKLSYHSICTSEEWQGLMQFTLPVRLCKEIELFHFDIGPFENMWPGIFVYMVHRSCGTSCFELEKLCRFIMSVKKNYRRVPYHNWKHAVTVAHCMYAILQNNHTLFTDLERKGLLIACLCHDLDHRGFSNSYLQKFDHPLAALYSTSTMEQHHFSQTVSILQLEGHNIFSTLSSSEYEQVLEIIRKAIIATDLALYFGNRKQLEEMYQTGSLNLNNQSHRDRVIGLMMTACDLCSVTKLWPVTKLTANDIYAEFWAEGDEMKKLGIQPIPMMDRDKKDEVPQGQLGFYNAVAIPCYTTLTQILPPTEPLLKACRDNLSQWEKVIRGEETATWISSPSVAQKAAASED
PDE4B, sequence (Q07343 212-736 limits assumed): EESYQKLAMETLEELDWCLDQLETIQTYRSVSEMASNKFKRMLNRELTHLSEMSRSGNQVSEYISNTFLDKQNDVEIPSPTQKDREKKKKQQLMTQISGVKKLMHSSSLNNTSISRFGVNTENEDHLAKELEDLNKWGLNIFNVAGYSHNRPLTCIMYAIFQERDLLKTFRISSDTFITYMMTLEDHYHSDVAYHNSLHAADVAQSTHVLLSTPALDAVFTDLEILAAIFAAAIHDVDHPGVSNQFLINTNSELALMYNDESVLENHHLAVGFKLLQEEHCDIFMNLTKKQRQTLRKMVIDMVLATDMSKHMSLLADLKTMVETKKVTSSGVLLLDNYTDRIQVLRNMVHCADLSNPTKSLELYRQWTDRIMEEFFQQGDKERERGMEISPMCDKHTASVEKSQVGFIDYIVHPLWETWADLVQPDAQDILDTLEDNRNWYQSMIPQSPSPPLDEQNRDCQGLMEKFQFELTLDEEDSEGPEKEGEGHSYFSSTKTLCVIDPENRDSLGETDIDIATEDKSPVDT
T6 sequence (Q9HCR9 445-933 limits assumed): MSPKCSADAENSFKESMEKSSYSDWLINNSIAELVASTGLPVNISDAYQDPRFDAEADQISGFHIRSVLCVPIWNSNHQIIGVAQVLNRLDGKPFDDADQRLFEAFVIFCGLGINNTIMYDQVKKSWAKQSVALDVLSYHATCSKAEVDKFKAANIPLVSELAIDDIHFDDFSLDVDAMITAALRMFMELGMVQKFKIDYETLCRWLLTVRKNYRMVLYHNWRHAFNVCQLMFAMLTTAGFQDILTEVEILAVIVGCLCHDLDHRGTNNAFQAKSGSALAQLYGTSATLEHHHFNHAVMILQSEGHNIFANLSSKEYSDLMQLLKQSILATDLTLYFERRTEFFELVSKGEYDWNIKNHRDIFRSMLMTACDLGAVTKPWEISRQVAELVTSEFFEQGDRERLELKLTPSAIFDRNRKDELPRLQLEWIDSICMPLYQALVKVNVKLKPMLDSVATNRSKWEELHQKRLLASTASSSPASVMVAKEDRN
T3 sequence (Q13370 whole entry): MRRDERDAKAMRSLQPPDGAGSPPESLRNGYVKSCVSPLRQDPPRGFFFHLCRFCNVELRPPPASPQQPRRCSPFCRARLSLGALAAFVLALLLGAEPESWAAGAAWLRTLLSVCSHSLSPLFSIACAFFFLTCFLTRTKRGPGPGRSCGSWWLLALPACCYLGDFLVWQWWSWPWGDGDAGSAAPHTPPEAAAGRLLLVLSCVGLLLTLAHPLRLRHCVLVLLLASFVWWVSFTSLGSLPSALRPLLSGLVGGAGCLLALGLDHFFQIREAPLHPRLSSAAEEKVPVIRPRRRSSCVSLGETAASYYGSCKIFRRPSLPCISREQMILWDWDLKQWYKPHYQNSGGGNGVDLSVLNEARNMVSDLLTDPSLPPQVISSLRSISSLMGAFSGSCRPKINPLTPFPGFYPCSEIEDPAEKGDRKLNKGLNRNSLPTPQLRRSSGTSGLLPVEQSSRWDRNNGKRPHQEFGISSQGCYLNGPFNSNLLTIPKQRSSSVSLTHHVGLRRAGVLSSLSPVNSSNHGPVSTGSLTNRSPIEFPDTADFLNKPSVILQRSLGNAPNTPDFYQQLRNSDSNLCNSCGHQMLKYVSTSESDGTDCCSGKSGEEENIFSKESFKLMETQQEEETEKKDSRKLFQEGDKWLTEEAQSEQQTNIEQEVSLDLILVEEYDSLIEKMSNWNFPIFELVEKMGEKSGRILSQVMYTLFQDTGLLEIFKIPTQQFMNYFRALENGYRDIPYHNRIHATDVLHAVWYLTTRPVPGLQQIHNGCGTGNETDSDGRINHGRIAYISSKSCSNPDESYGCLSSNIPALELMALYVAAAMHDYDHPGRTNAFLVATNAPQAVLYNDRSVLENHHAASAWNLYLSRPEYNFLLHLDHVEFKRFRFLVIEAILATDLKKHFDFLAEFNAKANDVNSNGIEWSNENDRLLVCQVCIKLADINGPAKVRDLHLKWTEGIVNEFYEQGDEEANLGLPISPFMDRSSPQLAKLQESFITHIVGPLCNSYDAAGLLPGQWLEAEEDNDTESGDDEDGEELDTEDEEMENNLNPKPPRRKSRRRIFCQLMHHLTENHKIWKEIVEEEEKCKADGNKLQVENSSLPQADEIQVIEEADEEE
T4 sequence (Q9NP56 whole entry): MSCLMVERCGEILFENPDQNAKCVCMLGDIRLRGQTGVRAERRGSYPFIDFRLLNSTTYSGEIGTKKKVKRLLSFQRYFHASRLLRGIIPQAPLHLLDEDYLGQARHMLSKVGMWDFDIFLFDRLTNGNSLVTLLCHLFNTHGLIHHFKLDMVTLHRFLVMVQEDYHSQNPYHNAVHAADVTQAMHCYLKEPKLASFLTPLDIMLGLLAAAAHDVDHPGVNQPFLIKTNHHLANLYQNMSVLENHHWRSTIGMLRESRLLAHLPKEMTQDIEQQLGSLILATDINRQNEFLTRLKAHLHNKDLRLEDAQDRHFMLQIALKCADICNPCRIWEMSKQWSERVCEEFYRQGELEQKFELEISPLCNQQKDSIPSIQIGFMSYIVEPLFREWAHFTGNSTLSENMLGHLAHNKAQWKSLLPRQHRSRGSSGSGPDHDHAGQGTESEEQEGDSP
T2 sequence (O00408 whole entry): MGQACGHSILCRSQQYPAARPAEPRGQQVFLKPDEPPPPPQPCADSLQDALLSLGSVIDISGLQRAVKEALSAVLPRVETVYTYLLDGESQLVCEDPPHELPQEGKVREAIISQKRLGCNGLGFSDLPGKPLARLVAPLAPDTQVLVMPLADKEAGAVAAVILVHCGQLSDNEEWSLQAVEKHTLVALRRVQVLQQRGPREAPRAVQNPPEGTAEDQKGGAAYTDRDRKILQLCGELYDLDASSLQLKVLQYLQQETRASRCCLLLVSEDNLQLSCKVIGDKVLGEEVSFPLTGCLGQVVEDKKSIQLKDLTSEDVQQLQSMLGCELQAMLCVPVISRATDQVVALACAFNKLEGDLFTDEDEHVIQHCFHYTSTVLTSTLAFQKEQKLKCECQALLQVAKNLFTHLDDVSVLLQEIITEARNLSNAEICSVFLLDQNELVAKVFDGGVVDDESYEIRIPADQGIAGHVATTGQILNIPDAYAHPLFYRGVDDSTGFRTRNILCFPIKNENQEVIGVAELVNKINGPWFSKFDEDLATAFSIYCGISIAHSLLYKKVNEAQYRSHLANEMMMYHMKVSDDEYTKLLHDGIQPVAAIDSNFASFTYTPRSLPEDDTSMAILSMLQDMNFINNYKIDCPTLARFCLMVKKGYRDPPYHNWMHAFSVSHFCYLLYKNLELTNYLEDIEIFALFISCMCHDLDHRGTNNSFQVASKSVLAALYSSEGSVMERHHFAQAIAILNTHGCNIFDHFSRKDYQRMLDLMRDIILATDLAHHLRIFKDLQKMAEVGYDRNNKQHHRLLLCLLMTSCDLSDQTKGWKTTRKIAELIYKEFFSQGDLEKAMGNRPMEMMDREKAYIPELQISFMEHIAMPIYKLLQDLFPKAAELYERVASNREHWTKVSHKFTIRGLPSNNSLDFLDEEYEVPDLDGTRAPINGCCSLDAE

On to `COc1ccc(-c2ccccc2Cc2nc(N3CCC(CCO)CC3)c(C#N)c(=O)[nH]2)cn1` [Example 38, 4-[4-(2-Hydroxyethyl)piperidin-1-yl]-2-[2-(6-methoxypyridin-3-yl)benzyl]-6-oxo-1,6-dihydropyrimidine-5-carbonitrile], for which the IC50 is above 4 µM on PDE1C; above 4 µM at PDE2A; above 4 µM at PDE3B; above 4 µM at PDE4B; 2.2 µM at PDE7B; above 4 µM on PDE10A. Further, at PDE11A, the concentration for half-maximal inhibition (IC50) is above 4 µM.

In the case of `COc1ccc(-c2ccccc2Cc2nc(N3CCC[C@H]3CO)c(C#N)c(=O)[nH]2)cn1` [Example 112], the half-inhibitory concentration (IC50) on PDE1C, at PDE2A, on PDE3B, on PDE4B, at PDE7B and on PDE8A was above 4 µM in each case. For the same molecule, the half-inhibitory concentration (IC50) on PDE10A is above 4 µM; at PDE11A it was above 4 µM; at PDE9A [1], 0.005 µM.

`COc1ccc(-c2ccccc2Cc2nc(N3CCCC3)c(C#N)c(=O)[nH]2)cn1` [Example 113]: the concentration for half-maximal inhibition (IC50) at PDE1C, on PDE2A, on PDE3B, on PDE4B, at PDE7B and at PDE8A was above 4 µM each time. Moreover, the results for the IC50 on PDE10A, at PDE11A and at PDE9A [1] were above 4 µM, 1.5 µM and 0.015 µM, respectively.

As to `CC(C)Cn1c(=O)n(C)c(=O)c2[nH]cnc21` [IBMX], on PDE9A [2], the “inhibition on the isolated enzyme (human PDE9A)” value (“inhibition … (human PDE9A)” for short) is listed as “no inhibition”. The “inhibition of murine PDE9A” value at Murine PDE9A is on record as “not inhibited”.

In the case of `CC(=O)Nc1ccc(-c2c[nH]c(=O)cn2)cc1` [SKF94120], on PDE9A [2], the “inhibition … (human PDE9A)” value is “no inhibition”.

Turning to `OCCN(CCO)c1nc(N2CCCCC2)c2nc(N(CCO)CCO)nc(N3CCCCC3)c2n1` [dipyridamole], the “inhibition … (human PDE9A)” value at PDE9A [2] is “no inhibition”.

Take `COc1ccc(C2CNC(=O)C2)cc1OC1CCCC1` (stereo not shown) [rolipram]: the “inhibition … (human PDE9A)” value at PDE9A [2] was “no inhibition”.

As to `CCOC(=O)C1=C[C@]2(CC)CCCN3CCc4c(n1c1ccccc41)[C@@H]32` [vinpocetine], the “inhibition … (human PDE9A)” value on PDE9A [2] is on record as “no inhibition”.
